Assay results reported in patent US10029986B2, “Alkynyl pyridine-substituted amide compound and pesticide” (NISSAN CHEMICAL INDUSTRIES, LTD., priority 2014, dated 2018).

Tests used:
[1] = system: Erysiphe polygoni (synonym: Erysiphe betae); experiment: Test on the preventive effect against cucumber powdery mildew; assay type: in vivo; conditions: 216 h, test solution A 500 ppm, 5 ml per pot sprayed, cucumber cotyledon stage, 9 days after inoculation
In short: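 Cucumber (Sagami Hanjiro) at cotyledon stage sprayed with 500 ppm compound (diluted from 20 wt% emulsifiable concentrate), air-dried, then inoculated with Erysiphe polygoni conidia. Kept 9 days at 20 °C in greenhouse; lesion area ratio scored in duplicate, control value = [1−(treated/untreated lesion ratio)]×100.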

[2] = system: Colletotrichum lagenarium (Synonym: Colletotrichum orbiculare); experiment: Test on the preventive effect against cucumber anthracnose; assay type: in vivo; conditions: 168 h, test solution A 500 ppm, 5 ml per pot sprayed, 2 days inoculation chamber then 7 days at 23° C.
Protocol: Compounds of the present invention were dissolved in a solvent for emulsion (a mixture of Sorpol (registered trademark) 3005XL (manufactured by Toho Chemical Industry Co., Ltd.): N-methylpyrrolidone: Solvesso (registered trademark) 200 (manufactured by ExxonMobil Chemical) in a ratio of 1:5:2) to prepare 20 wt % emulsifiable concentrates. Then, distilled water was added to dilute the emulsifiable concentrates to the prescribed concentration (500 ppm), and the obtained solutions were used in the following the Test Examples 1 to 8. Cucumber (varieties: Sagami Hanjiro) was seeded in 90 cm^3 plastic pot, and at the cotyledon stage, 5 ml per pot of test solution A of the compounds of the present invention was sprayed. One day later, a suspension of conidium of Colletotrichum lagenarium (Synonym: Colletotrichum orbiculare) was sprayed, and the pot was left for 2 days in the inoculation chamber at 25° C. under humidity of 100% RH. Thereafter, the pot was placed in an air-conditioned greenhouse (23° C.) and left at the same temperature for 7 days. Thereafter, the proportion of the formed lesion in the inoculated leaves were measured to calculate the control value in accordance with the same formula as in Test Example 1. The test was carried out in duplicate.

Botrytis cinerea = experiment: Test on the preventive effect against cucumber gray mold (spore inoculation); assay type: in vivo; conditions: 72 h, test solution A 500 ppm, 5 ml per pot, cucumber cut leaves, conidium inoculation, 3 days at 20° C.
In short: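 Cotyledon-stage cucumber (Sagami Hanjiro) sprayed with 500 ppm compound from emulsifiable concentrate; detached treated leaves inoculated with B. cinerea conidia in PDA (1:1). After 3 days at 20 °C, humid, lesion proportion gave control value; duplicate test.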

[3] = system: Southern root-knot nematode (Meloidogyne incognita); experiment: Test on the preventive effect against Southern root-knot nematode (garden balsam seedlings); assay type: in vivo; conditions: 504 h, test solution B 100 ppm, 1 ml per seedling to base of garden balsam seedlings, 3 weeks in greenhouse, read-out: efficacy (root knot damage degree relative to non-treated plot)
Protocol: Compounds of the present invention were dissolved in dimethyl sulfoxide to prepare 1 wt % solutions. Then, distilled water was added to dilute the solutions to the prescribed concentration (100 ppm), and the obtained solutions were used in the following the Test Examples 9 to 12. 1 ml per seedling of test solution B of the compounds of the present invention was treated to the bases of garden balsam seedlings (about 2 weeks after budding) planted in a cell tray of which each cell was filled with 10 g of soil. 1 hour after the application, 1 ml per cell of water containing Southern root-knot nematode (Meloidogyne incognita) 2 L larvae (100 larvae of 2 L/1 ml) was applied to the base. The tray was placed in a greenhouse for 3 weeks, and the degree of root knot on the root was determined in accordance with the following damage index and the damage degree to calculate the efficacy (%) relative to the non-treated plot in accordance with the following formula. • 0: No knot formation was observed. • 1: Knot formations were observed on parts of the root system. • 2: Knot formations were observed on the entire root system. • 3: Large knot formations were observed. • 4: Large knot formations were observed on the entire root system. [Damage degree]=[Σ(damage index×number of each damaged indexed seedling)/(4×number of seedlings investigated)]×100 Efficacy (%)=[1−(damage degree in treated plot/damage degree in non-treated plot)]×100

[4] = system: Southern root-knot nematode (Meloidogyne incoqnita); experiment: Insecticidal test against Southern root-knot nematode (eggs, 96 well plate); assay type: in vivo; conditions: 96 h, test solution B 100 ppm, 10 μl per well, 25° C. dark, 4 days after treatment, read-out: efficacy (unhatched eggs + inactive larvae relative to non-treated)
Protocol: Compounds of the present invention were dissolved in dimethyl sulfoxide to prepare 1 wt % solutions. Then, distilled water was added to dilute the solutions to the prescribed concentration (100 ppm), and the obtained solutions were used in the following the Test Examples 9 to 12. 60 μl of a potato dextrose 1% agar medium was added to each well of a 96 well plate, and 30 μl of sterilized water containing eggs of Southern root-knot nematode (Meloidogyne incoqnita) (10 eggs/3 μl) was added to each well. Further, 10 μl per well of test solution B of the compounds of the present invention was added, and the plate was left at rest at 25° C. under dark conditions.

melting point	Compound	pest or weed control at 500 µg/mL [1]	pest or weed control at 500 µg/mL [2]	pest or weed control at 500 µg/mL (Botrytis cinerea)	pest or weed control at 100 µg/mL [3]	pest or weed control at 100 µg/mL [4]
–	CC(Cc1ncc(C#Cc2ccccc2)cc1Cl)NC(=O)c1cn(C)nc1C(F)F (stereo not shown) [8-027]	≥ 70%	≥ 70%	≥ 70%	–	–
116 to 118 °C	O=C(NCC(F)(F)c1ncc(C#CC2CC2)cc1Cl)c1cccnc1C(F)F [3-003, N-[2-[3-chloro-5-(cyclopropylethynyl)pyridin-2-yl]-2,2-difluoroethyl]-2-(difluoromethyl)nicotinamide]	≥ 70%	≥ 70%	≥ 70%	≥ 50%	≥ 50%
127 to 130 °C	CC(Cc1ncc(C#CC2CC2)cc1Cl)NC(=O)c1cn(C)nc1C(F)F (stereo not shown) [8-024, N-[2-[3-chloro-5-(cyclopropylethynyl)pyridin-2-yl]-1-methylethyl]-3-difluoromethyl-1-methyl-1H-pyrazole-4-carboxamide]	≥ 70%	≥ 70%	≥ 70%	–	–
–	Cn1cc(C(=O)NCC(c2ncc(C#CC3CC3)cc2Cl)C2CC2)c(C(F)F)n1 (stereo not shown) [8-009]	≥ 70%	≥ 70%	≥ 70%	≥ 50%	–
144 to 146 °C	CC(C)(C)C#Cc1cnc(CCNC(=O)c2cccnc2C(F)F)c(Cl)c1 [3-002]	≥ 70%	≥ 70%	≥ 70%	≥ 50%	≥ 50%
105 to 108 °C	O=C(NCCc1ncc(C#CC2CC2)cc1Cl)c1ccccc1C(F)(F)F [1-002]	≥ 70%	≥ 70%	≥ 70%	–	≥ 50%
–	Cc1nc(C(F)F)c(C(=O)NCC(C)c2ncc(C#CC3CC3)cc2Cl)s1 (stereo not shown) [9-002]	≥ 70%	≥ 70%	≥ 70%	–	–
–	CC(CNC(=O)c1cccnc1C(F)F)c1ncc(C#CC2CC2)cc1Cl (stereo not shown) [3-006]	≥ 70%	≥ 70%	≥ 70%	≥ 50%	≥ 50%
–	CSC(CNC(=O)c1cccnc1C(F)F)c1ncc(C#CC2CC2)cc1Cl (stereo not shown) [3-020]	≥ 70%	≥ 70%	≥ 70%	≥ 50%	≥ 50%
137 to 139 °C	O=C(NCC(F)(F)c1ncc(C#CC2CC2)cc1Cl)c1ccccc1C(F)(F)F [1-005]	≥ 70%	≥ 70%	≥ 70%	≥ 50%	≥ 50%
100 to 101 °C	Cn1cc(C(=O)NCC(F)(F)c2ncc(C#CC3CC3)cc2Cl)c(C(F)F)n1 [8-003]	≥ 70%	≥ 70%	≥ 70%	–	≥ 50%
–	O=C(NCC(c1ncc(C#CC2CC2)cc1Cl)C1CC1)c1cccnc1C(F)F (stereo not shown) [3-008]	≥ 70%	≥ 70%	≥ 70%	≥ 50%	≥ 50%
100 to 103 °C	CC#Cc1cnc(CCNC(=O)c2ccccc2C(F)(F)F)c(Cl)c1 [1-001, N-[2-[3-chloro-5-(1-propynyl)pyridin-2-yl]ethyl]-2-(trifluoromethyl)benzamide]	≥ 70%	≥ 70%	≥ 70%	–	≥ 50%
96 to 98 °C	Cn1cc(C(=O)NCCc2ncc(C#CC3CC3)cc2Cl)c(C(F)F)n1 [8-001]	≥ 70%	–	≥ 70%	≥ 50%	≥ 50%
–	CSC(CNC(=O)c1cn(C)nc1C(F)F)c1ncc(C#CC2CC2)cc1Cl (stereo not shown) [8-020, N-[2-[3-chloro-5-(cyclopropylethynyl)pyridin-2-yl]-2-(methylthio)ethyl]-3-difluoromethyl-1-methyl-1H-pyrazole-4-carboxamide]	≥ 70%	≥ 70%	≥ 70%	–	–
